Assay [1] concerns the target T1, human GPR119 (Homo sapiens, UniProt Q8TDV5).
T1 sequence (Q8TDV5 1-335): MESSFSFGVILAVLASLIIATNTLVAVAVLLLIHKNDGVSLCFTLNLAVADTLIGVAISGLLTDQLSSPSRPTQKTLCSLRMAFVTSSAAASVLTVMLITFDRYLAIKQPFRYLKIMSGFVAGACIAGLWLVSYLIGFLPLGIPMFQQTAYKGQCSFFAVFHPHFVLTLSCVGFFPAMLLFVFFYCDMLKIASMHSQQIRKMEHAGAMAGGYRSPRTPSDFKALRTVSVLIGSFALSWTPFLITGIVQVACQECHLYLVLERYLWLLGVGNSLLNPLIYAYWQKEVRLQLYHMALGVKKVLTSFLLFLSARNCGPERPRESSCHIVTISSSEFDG
The assay is described as follows: HTRF cAMP cell-based GPR119 agonist assay (hGPR119 HEK-CRE beta-lactamase cells). Set-up: host or cells: hGPR119-HEK293-CRE-beta-lactamase cells. The following applies: HTRF cAMP, hGPR119 HEK-CRE beta-lactamase cells; each line is a separate determination; read-out: Human cAMP Functional EC50. As to the method: GPR119 agonist activity was also determined with a cell-based assay utilizing an HTRF (Homogeneous Time-Resolved Fluorescence) cAMP detection kit (cAMP dynamic 2 Assay Kit; Cis Bio cat #62AM4PEC) that measures cAMP levels in the cell. The method is a competitive immunoassay between native cAMP produced by the cells and the cAMP labeled with the dye d2. The tracer binding is visualized by a Mab anti-cAMP labeled with Cryptate. The specific signal (i.e. energy transfer) is inversely proportional to the concentration of cAMP in either standard or sample.
Specifically, hGPR119HEK-CRE beta-lactamase cells (Invitrogen 2.5×10^7/mL; the same cell line used in the beta-lactamase assay described above) are removed from cryopreservation and diluted in growth medium (Dulbecco's modified Eagle medium high glucose (DMEM; Gibco Cat #11995-065), 1% charcoal dextran treated fetal bovine serum (CD serum; HyClone Cat # SH30068.03), 1×MEM Nonessential amino acids (Gibco Cat #15630-080) and 25 mM HEPES pH 7.0 (Gibco Cat #15630-080)). The cell concentration was adjusted to 1.5×10^5 cells/mL and 30 mLs of this suspension was added to a T-175 flask and incubated at 37 degrees Celsius in a humidified environment in 5% carbon dioxide. […]
Varying concentrations of each compound to be tested were diluted in assay buffer containing 3-isobutyl-1-methylxanthin (IBMX; Sigma cat #15879) and added to the assay plate wells in a volume of 2 microL (final IBMX concentration was 400 microM and final DMSO concentration was 0.58%). […] The plates were then incubated at room temperature and after 60 minutes, changes in the HTRF signal were read with an Envision 2104 multilabel plate reader using excitation of 330 nm and emissions of 615 and 665 nm. Raw data were converted to nM cAMP by interpolation from a cAMP standard curve (as described in the manufacturer's assay protocol) and EC50 determinations were made from an agonist-response curves analyzed with a curve fitting program using a 4-paramter logistic dose response equation.
Background: In TR-FRET formats the signal depends on donor and acceptor labels being close together.

Assay [2] concerns the target T2, human GPR119 (Homo sapiens, UniProt Q8TDV5).
T2 construct: host or cells: U2OS hGPR119 β-arrestin cell line
Briefly: DiscoverX PathHunter β-arrestin cell assay (U2OS hGPR119 β-arrestin cell line). Format: cell-based. The following applies: U2OS hGPR119 β-arrestin cells; each line is a separate determination; read-out: Human B-arrestin Functional EC50. Here is the method:
GPR119 agonist activity was also determined with a cell-based assay utilizing DiscoverX PathHunter β-arrestin cell assay technology and their U2OS hGPR119 β-arrestin cell line (DiscoverX Cat #93-0356 C3). In this assay, agonist activation is determined by measuring agonist-induced interaction of β-arrestin with activated GPR119. A small, 42 amino acid enzyme fragment, called ProLink was appended to the C-terminus of GPR119. Arrestin was fused to the larger enzyme fragment, termed EA (Enzyme Acceptor). […]
After 16 hours (overnight) the assay plates were removed from the incubator and varying concentrations of each compound to be tested (diluted in assay buffer (1×HBSS+CaCl2+MgCl2 (Gibco Cat #14025-092), 20 mM HEPES pH 7.0 (Gibco Cat #15630-080) and 0.1% BSA (Sigma Cat # A9576)) were added to the assay plate wells in a volume of 5 microliters (final DMSO concentration was 0.5%). After a 90 minute incubation at 37 degrees Celsius in a humidified environment in 5% carbon dioxide, 12 microliters of Galacton Star β-galactosidase substrate (PathHunter Detection Kit (DiscoveRx Cat #93-0001); prepared as described in the manufacturers assay protocol) was added to each well of the assay plate. The plates were incubated at room temperature and after 60 minutes, changes in the luminescence were read with an Envision 2104 multilabel plate reader at 0.1 seconds per well. […]
T2 sequence (P32121 whole entry partner, one chain of several): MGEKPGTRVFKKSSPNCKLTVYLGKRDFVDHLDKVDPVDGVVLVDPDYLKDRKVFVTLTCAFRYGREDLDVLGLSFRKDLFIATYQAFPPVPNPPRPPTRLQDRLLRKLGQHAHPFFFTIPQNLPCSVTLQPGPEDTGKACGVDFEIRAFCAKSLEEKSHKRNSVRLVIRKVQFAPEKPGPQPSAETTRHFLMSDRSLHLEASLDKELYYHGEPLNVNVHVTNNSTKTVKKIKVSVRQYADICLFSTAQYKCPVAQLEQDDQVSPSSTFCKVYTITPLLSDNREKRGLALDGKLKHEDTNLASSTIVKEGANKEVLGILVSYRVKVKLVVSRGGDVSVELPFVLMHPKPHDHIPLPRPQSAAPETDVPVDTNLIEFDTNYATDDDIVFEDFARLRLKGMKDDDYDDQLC

SMILES strings stand for the structures. Where “and” joins values, the source holds several entries; their conditions need not be identical. Equal entries are not always repeated.

On to `Cc1c(O[C@@H]2[C@@H]3COC[C@H]2CN(C(=O)OC(C)C)C3)ncnc1N1CCc2cc(S(C)(=O)=O)ccc21` [Example 23, Isopropyl (9-syn)-9-({5-methyl-6-[5-(methylsulfonyl)-2,3-dihydro-1H-indol-1-yl]pyrimidin-4-yl}oxy)-3-oxa-7-azabicyclo[3.3.1]nonane-7-carboxylate], for which the half-maximal effective concentration (EC50) in assay [1] is 311 nM and 982 nM and 1040 nM and 1330 nM; in assay [2], 37 nM.

In the case of `Cc1c(O[C@@H]2[C@@H]3COC[C@H]2CN(C(=O)OC2(C)CC2)C3)ncnc1N1CCc2ncccc21` [Example 28, 1-Methylcyclopropyl (9-syn)-9-{[6-(2,3-dihydro-1H-pyrrolo[3,2-b]pyridin-1-yl)-5-methylpyrimidin-4-yl]oxy}-3-oxa-7-azabicyclo[3.3.1]nonane-7-carboxylate], the EC50 was 370 nM and 194 nM and 88 nM in assay [1]; 3.79 nM in assay [2].

As usually defined, the EC50 is the midpoint of the concentration-response curve.

For the origin of these results see US20120052130A1, “GPR 119 MODULATORS” (Pfizer Inc., priority 2009, published 2012).
